Values joined by “and” are separate entries in the source; they are usually repeats but may differ in a detail not shown here. Equal values may be shown once.
Test system: 171881-019-R-J1-PDC tumor spheroid viability
Assay: Anticancer human tumor 171881-019-R-J1-PDC patient-derived invasive breast carcinoma cell line growth inhibition [PI3K]
Settings: spheroids with HUVEC and MSC; for viability, T/C: stronger effect = lower value
Text: Combinatorial screen of targeted agents with the PI3K inhibitors inavolisib, alpelisib, duvelisib, and copanlisib in multi-cell type tumor spheroids
A high-throughput screen of multi-cell type tumor spheroids was designed to identify active combinations of targeted small molecules and PI3K pathway inhibitors. Complex spheroids include a stromal component modeled by human endothelial cells (HUVEC) and fibroblasts modeled by human mesenchymal stem cells (MSCs). The concentration ranges selected for each drug and investigational agent were based upon clinically achievable concentrations if the clinical Cmax of the agent was known.
Compounds. The drugs and investigational agents: inavolisib (NSC800729), alpelisib (NSC765974), duvelisib (NSC772469), copanlisib (NSC816437), ipatasertib (NSC767898), afuresertib (NSC778305), talazoparib (NSC767125), sapanisertib (NSC764658), selumetinib (NSC741078), tovorafenib (DAY101, NSC766906), vemurafenib (NSC761431), ravoxertinib (NSC781343), sotorasib (NSC818433), MRTX1133 (NSC 836407), abemaciclib (NSC 768073), palbociclib (NSC758247), venetoclax (NSC 766270), SY5609 (NSC837396), enzalutamide (NSC755605), and darolutamide (NSC825331), were obtained from the National Cancer Institute (NCI) Developmental Therapeutics Program Chemical Repository. The FDA-approved anticancer drug set is available from the NCI Developmental Therapeutics Program. […] The stock solutions were prepared in dimethyl sulfoxide (DMSO, Sigma-Aldrich, St. Louis, MO, cat. D2650) at 800-fold the tested concentration and stored at -70 degrees C prior to their use. All drugs and investigational agents were tested over a range starting from a high concentration at or near the clinical Cmax and decreasing in half-log increments. If the clinical Cmax for an agent had not been determined, the highest concentration tested was 10 microM.
Cell Culture. All cells were maintained in an incubator at 37 degrees C and 5% CO2 with 95% humidity. The PDC lines were cultured according to standard operating procedures established by the NCI PDMR (https://pdmr.cancer.gov/sops/default.htm). All PDCs were thawed and cultured in Matrigel-coated flasks prepared with a working solution of 1X Ham's F-12 nutrient mix, without supplementation (Invitrogen, Waltham, MA, cat. 11765054), 100 U/mL penicillin-streptomycin (Invitrogen, cat. 15140122), and 2.5% Matrigel (Corning Inc., Corning, NY, cat. 354248) for the first three passages. The 354836-022-R-J1-PDC, 475296-252-R-J1-PDC, and 997726-040-R-J2-PDC lines were cultured in 6A media, which includes advanced DMEM/F-12 (Thermo Fisher Scientific, cat. 12634028), 10 mM HEPES (Thermo Fisher Scientific, cat. 15630080), 1X GlutaMAX supplement (Thermo Fisher Scientific, cat. 35050061), 0.1 mg/mL primocin (InvivoGen, San Diego, CA, cat. ant-pm-2), 10% defined fetal bovine serum, heat inactivated (HyClone Laboratories Inc., Logan, UT, cat. SH30070.03HI), 50% L-WRN conditioned media (ATCC, cat. CRL-3276), 1.25 mM N-Acetyl-L-cysteine (Sigma-Aldrich, cat. A9165), 10 mM nicotinamide (Sigma-Aldrich, cat. N0636), 1X B-27 supplement (Thermo Fisher Scientific, cat. 17504044), 1X N-2 supplement (Thermo Fisher Scientific, cat. 17502048), and 10 microM Y-27632 dihydrochloride (Tocris Bioscience, Bristol, United Kingdom, cat. 1254). The 624824-186-R-J2-PDC line was cultured in 6C/Colon 1B media, which includes all 6A media components plus 50 ng/mL human EGF recombinant protein (Thermo Fisher Scientific, cat. PHG0311). […]

[1] = compound alone, run of 05/08/2023
[2] = compound alone, run of 05/09/2023
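Note: spheroids exposed to compound for 7 days before viability read.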
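Throughout, for viability, T/C: 100% = DMSO vehicle-treated spheroids.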

CC(=O)c1c(C)c2cnc(Nc3ccc(N4CCNCC4)cn3)nc2n(C2CCCC2)c1=O
viability, T/C (compound 0.000316 µM): 91.8% [middle of 4 runs] | viability, T/C (compound 0.001 µM): 85.3% [middle of 4 runs] | viability, T/C (compound 0.00316 µM): 97% [middle of 4 runs] | viability, T/C (compound 0.01 µM): 99.2% [middle of 4 runs] | viability, T/C (compound 0.0316 µM): 108% [middle of 4 runs] | viability, T/C (compound 0.1 µM): 88.7% [middle of 4 runs] | IC50 (curve of compound): > 0.1 µM

CC(C)NCC(C(=O)N1CCN(c2ncnc3c2C(C)CC3O)CC1)c1ccc(Cl)cc1 (stereo unspecified)
viability, T/C (compound 0.0316 µM): 85.8% [middle of 4 runs] | viability, T/C (compound 0.1 µM): 76.4% [middle of 4 runs] | viability, T/C (compound 0.316 µM): 57.3% (2×) and 54.7% and 53.9% | viability, T/C (compound 1 µM): 27.4% [middle of 4 runs] | viability, T/C (compound 3.16 µM): 17.1% [middle of 4 runs] | viability, T/C (compound 10 µM): 9.96% [middle of 4 runs] | IC50 (curve of compound): 376 nM [middle of 4 runs]

CC(C)n1nc(-c2ccc3oc(N)nc3c2)c2c(N)ncnc21
viability, T/C (compound 0.001 µM): 76.3% and 86.4% and 84.6% (2×) | viability, T/C (compound 0.00316 µM): 78.9% [middle of 4 runs] | viability, T/C (compound 0.01 µM): 53.9% [middle of 4 runs] | viability, T/C (compound 0.0316 µM): 24% [middle of 4 runs] | viability, T/C (compound 0.1 µM): 3.78% [middle of 4 runs] | IC50 (curve of compound): 11.9 nM [middle of 4 runs]

CC(Cn1ccc(-c2ccc(C#N)c(Cl)c2)n1)NC(=O)c1cc(C(C)O)[nH]n1 (stereo unspecified)
viability, T/C (compound 0.0316 µM): 95.5% [middle of 4 runs] | viability, T/C (compound 0.1 µM): 91.1% [middle of 4 runs] | viability, T/C (compound 0.316 µM): 92.4% [middle of 4 runs] | viability, T/C (compound 1 µM): 93.4% [middle of 4 runs] | viability, T/C (compound 3.16 µM): 87.9% [middle of 4 runs] | viability, T/C (compound 10 µM): 64.3% [middle of 4 runs] | IC50 (curve of compound): > 10 µM

CC(Nc1ccc2c(c1)OCCn1cc(N3C(=O)OCC3C(F)F)nc1-2)C(N)=O (stereo unspecified)
viability, T/C (compound 0.00316 µM): 94.1% [middle of 8 runs] | viability, T/C (compound 0.01 µM): 83.8% [middle of 8 runs] | viability, T/C (compound 0.0316 µM): 56.6% [middle of 8 runs] | viability, T/C (compound 0.1 µM): 40.9% [middle of 8 runs] | viability, T/C (compound 0.316 µM): 28% [middle of 8 runs] | viability, T/C (compound 1 µM): 21.4% [middle of 8 runs] | IC50 [1]: 52.5 nM [middle of 8 runs]

CC(Nc1ncnc2nc[nH]c12)c1cc2cccc(Cl)c2c(=O)n1-c1ccccc1 (stereo unspecified)
viability, T/C (compound 0.0316 µM): 90% [middle of 8 runs] | viability, T/C (compound 0.1 µM): 97.5% [middle of 8 runs] | viability, T/C (compound 0.316 µM): 99.2% [middle of 8 runs] | viability, T/C (compound 1 µM): 100% [middle of 8 runs] | viability, T/C (compound 3.16 µM): 87.8% [middle of 8 runs] | viability, T/C (compound 10 µM): 59.8% [middle of 8 runs] | IC50 [2]: > 10 µM

CC1(C)CCC(CN2CCN(c3ccc(C(=O)NS(=O)(=O)c4ccc(NCC5CCOCC5)c([N+](=O)[O-])c4)c(Oc4cnc5[nH]ccc5c4)c3)CC2)=C(c2ccc(Cl)cc2)C1
viability, T/C (compound 0.0316 µM): 90.2% [middle of 4 runs] | viability, T/C (compound 0.1 µM): 87.8% [middle of 4 runs] | viability, T/C (compound 1 µM): 86.9% [middle of 4 runs] | viability, T/C (compound 3.16 µM): 63.4% [middle of 4 runs]

CCCS(=O)(=O)Nc1ccc(F)c(C(=O)c2c[nH]c3ncc(-c4ccc(Cl)cc4)cc23)c1F
viability, T/C (compound 0.0316 µM): 91.5% [middle of 4 runs] | viability, T/C (compound 0.1 µM): 91.1% [middle of 4 runs] | viability, T/C (compound 0.316 µM): 101% (2×) and 103% and 90.9% | viability, T/C (compound 1 µM): 99.5% [middle of 4 runs] | viability, T/C (compound 3.16 µM): 89.8% [middle of 4 runs] | viability, T/C (compound 10 µM): 16.1% [middle of 4 runs] | IC50 (curve of compound): 5.64 µM [middle of 4 runs]

CCN1CCN(Cc2ccc(Nc3ncc(F)c(-c4cc(F)c5nc(C)n(C(C)C)c5c4)n3)nc2)CC1
viability, T/C (compound 0.00316 µM): 98.7% [middle of 4 runs] | viability, T/C (compound 0.01 µM): 99.5% [middle of 4 runs] | viability, T/C (compound 0.0316 µM): 95.2% and 108% (2×) and 103% | viability, T/C (compound 0.1 µM): 107% [middle of 4 runs] | viability, T/C (compound 0.316 µM): 115% [middle of 4 runs] | viability, T/C (compound 1 µM): 122% [middle of 4 runs] | IC50 (curve of compound): > 1 µM

CNC(=O)c1ccc(N2C(=S)N(c3ccc(C#N)c(C(F)(F)F)c3)C(=O)C2(C)C)cc1F
viability, T/C (compound 0.0316 µM): 96.3% [middle of 4 runs] | viability, T/C (compound 0.1 µM): 87.5% [middle of 4 runs] | viability, T/C (compound 1 µM): 90.5% [middle of 4 runs] | viability, T/C (compound 3.16 µM): 82.8% [middle of 4 runs] | viability, T/C (compound 10 µM): 72% [middle of 4 runs] | IC50 (curve of compound): > 10 µM

COc1c(OCCCN2CCOCC2)ccc2c3n(c(=NC(=O)c4cnc(N)nc4)nc12)CCN3
viability, T/C (compound 0.00316 µM): 69.1% [middle of 8 runs] | viability, T/C (compound 0.01 µM): 46.5% [middle of 8 runs] | viability, T/C (compound 0.0316 µM): 25.6% [middle of 8 runs] | viability, T/C (compound 0.1 µM): 7.84% [middle of 8 runs] | viability, T/C (compound 0.316 µM): 1.95% [middle of 8 runs] | viability, T/C (compound 1 µM): 1.25% [middle of 7 runs] | IC50 [2]: 8.74 nM [middle of 8 runs]

C[C@@H](NC(=O)c1ncnc(N)c1Cl)c1ncc(C(=O)Nc2cc(C(F)(F)F)c(Cl)cn2)s1
viability, T/C (compound 0.0316 µM): 91.1% [middle of 4 runs] | viability, T/C (compound 0.1 µM): 89.8% [middle of 4 runs] | viability, T/C (compound 0.316 µM): 90.8% [middle of 4 runs] | viability, T/C (compound 1 µM): 83.6% [middle of 4 runs] | viability, T/C (compound 3.16 µM): 72.5% [middle of 4 runs] | viability, T/C (compound 10 µM): 49.5% [middle of 4 runs]

Cc1nc(NC(=O)N2CCCC2C(N)=O)sc1-c1ccnc(C(C)(C)C(F)(F)F)c1 (stereo unspecified)
viability, T/C (compound 0.0316 µM): 89.2% [middle of 8 runs] | viability, T/C (compound 0.1 µM): 86.3% [middle of 8 runs] | viability, T/C (compound 0.316 µM): 57.4% [middle of 8 runs] | viability, T/C (compound 1 µM): 33.8% [middle of 8 runs] | viability, T/C (compound 3.16 µM): 14.5% [middle of 8 runs] | viability, T/C (compound 10 µM): 3.58% [middle of 7 runs] | IC50 [1]: 475 nM [middle of 7 runs]

Cn1cnc2c(F)c(Nc3ccc(Br)cc3Cl)c(C(=O)NOCCO)cc21
viability, T/C (compound 0.00949 µM): 90.4% [middle of 4 runs] | viability, T/C (compound 0.03 µM): 83.8% [middle of 4 runs] | viability, T/C (compound 0.0949 µM): 80.9% [middle of 4 runs] | viability, T/C (compound 0.3 µM): 64.1% [middle of 4 runs] | viability, T/C (compound 0.949 µM): 42.6% [middle of 4 runs] | viability, T/C (compound 3 µM): 19% [middle of 4 runs] | IC50 (curve of compound): 653 nM [middle of 4 runs]

Cn1nccc1Nc1nccc(-c2ccn(C(CO)c3ccc(Cl)c(F)c3)c(=O)c2)n1 (stereo unspecified)
viability, T/C (compound 0.0316 µM): 93.8% [middle of 4 runs] | viability, T/C (compound 0.1 µM): 84.3% [middle of 4 runs] | viability, T/C (compound 0.316 µM): 57.5% [middle of 4 runs] | viability, T/C (compound 1 µM): 37.7% [middle of 4 runs] | viability, T/C (compound 3.16 µM): 26.1% [middle of 4 runs] | viability, T/C (compound 10 µM): 20.1% and 21.8% and 21.4% (2×) | IC50 (curve of compound): 502 nM [middle of 4 runs]

Cn1ncnc1[C@H]1c2n[nH]c(=O)c3cc(F)cc(c23)N[C@@H]1c1ccc(F)cc1
viability, T/C (compound 0.000316 µM): 92.5% [middle of 4 runs] | viability, T/C (compound 0.001 µM): 93.2% [middle of 4 runs] | viability, T/C (compound 0.00316 µM): 97.5% [middle of 4 runs] | viability, T/C (compound 0.01 µM): 98.2% [middle of 4 runs] | viability, T/C (compound 0.0316 µM): 97.7% [middle of 4 runs] | viability, T/C (compound 0.1 µM): 87% [middle of 4 runs] | IC50 (curve of compound): > 0.1 µM

Reference: PubChem BioAssay AID1963986 (Molecular Pharmacology Branch, DTP, NCI, 2024)
